Assay results: patent publication US10183039B2, “Methods for the production of collagen IV” (Vanderbilt University, priority 2013, dated 2019)
Where two headings read alike, the source gives them in different places.

Assays:
[1] = cited from earlier work
collagen IV = details: in vivo
Description: Data plotted as the group median±interquartile range. N=30 for each group. […] (FIG. 17F) Western blot of isolated NC1 domain from larvae treated as in (E), probed with an anti-Drosophila NC1 polyclonal antibody (Extended Experimental Methods). Associated larval Br-content was measured by EINAA. Bonds/hexamer were calculated from the Western blot.
In Br-free^DEP conditions, the inventors assessed the impact of Br-deficiency on crosslink formation in vivo. The inventors used vkg^454-GFP flies in which the single collagen IV α2 gene locus contains a GFP insertion near the 7S domain. vkg^454-GFP flies were grown on Br-free^DEP, Br-added^DEP and standard diets and biochemically assayed sulfilamine-bond content via immunoblot.

Description for PFHR-9 cells: (FIG. 10A) The murine PFHR-9 cell-culture model of basement membranes was cultured for 7 days in the presence of either commercial DMEM+5% FBS or adapted Br-Free DMEM +5% FBS dialyzed against Br-Free HBSS. Media was changed every 24 hours with the addition of 50 μg/ml ascorbic acid and NaBr added where noted. The cell deposited matrix was harvested, collagenase digested, and subjected to SDS-PAGE. NC1 crosslinking content is graphed as the mean±95% C.I. (n=3) with a representative gel depicted.
Bromine was systematically eliminated from DMEM by making the media from individual components without chloride counter ions, and using Br-Free chloride as the only halide source.

**Q.** Which results are given for `Br` [bromide]?
**A.** bromide level at which Bromism occurs ([1]; in vivo): > 12 mmol/L; half-life in the human body ([1]; in vivo): 12 days; serum bromide level at which toxicity (bromism) occurs [1]: ~12 mM; serum bromide level at which toxicity (bromism) occurs ([1]; listed as Br^−): > 12 mM; sulfilimine-bond content in larvae (collagen IV): rescued; S═N crosslinking in the collagen IV matrix (PFHR-9 cells): rescued physiologic levels of crosslinking; cell proliferation, viability, collagen IV synthesis (PFHR-9 cells): no observable difference in cell proliferation, viability, or collagen IV synthesis
